According to US10731216B2, “Methods and compositions for biomarkers of depression and pharmacoresponse” (priority 2014, dated 2020):
Entries after “also recorded” stand apart in the source; their conditions may differ. Like-named read-outs stand apart in the source and are kept apart here. Blank lines part the entries; values can stand above or below the molecule they belong to.

Tests used:
BMAL1, PER1 and PER2 = experiment: Clock gene mRNA expression in primary human fibroblasts after DEX synchronisation (qPCR); assay type: cell-based; conditions: 1 μM DEX; fibroblasts from healthy subjects; 6-36 h after synchronisation
Protocol: A skin biopsy (about 5×2 mm) was collected from the internal aspect of the arm under sterile conditions after local anesthesia using EMLA patches (AstraZeneca, Sodertalje, Sweden). The wound was then covered with a sterile patch, and a small scar is formed typically within […]. The tissue sample was quickly transferred to ice-cold HBSS (Life Technologies Europe BV, Stockholm, Sweden) and minced with a sterile razor blade into Collagenase (Type XI-S) (Sigma-Aldrich, Sweden) (30 min at 37° C.). After digestion, 3 ml of DMEM Medium (Life Technologies) supplemented with 10 mM Hepes buffer, sodium pyruvate, non-essential amino acid mixture, glutamax, 20% Fetal Bovine Serum, and 1% Penicillin/Streptomycin (all supplements were from Life Technologies) was added to a 6 cm plate and the samples were incubated at 37° C. until the fibroblasts reached confluence (typically 3-4 weeks). The confluent fibroblast cultures were passaged (0.05% Trypsin-EDTA; Invitrogen) then plated in 12 multi-well plates at a density of at least 50 k/cm^2 in the same medium as used above. […] The cells were collected between 6 and 36 h after synchronisation. The relative mRNA expression of BMAL1, PER1 and PER2 (Table 2: SEQ ID NO 19 and 20) was assessed by qPCR with HP RT (Table 2: SEQ ID NO 13 and 14) as housekeeping gene. The qPCR procedure is described in Example 1.

Per2 promoter = experiment: Luciferase reporter assay in Per2::Luc primary mouse fibroblasts after DEX synchronisation; assay type: cell-based; conditions: 1 μM DEX single pulse
Protocol: The generation of knock-in mice expressing firefly luciferase under the control of Per2 promoter (Per2::Luc) has been described previously (Yoo et al. 2004).
(§1) Tissue samples (about 0.25 cm^2) were harvested from the ear of adult (6 mo) control and Dex-exposed mice under terminal anesthesia. The tissue was rinsed in Hank's Balanced Salt Solution (HBSS) (Life Technologies Europe BV, Stockholm, Sweden), then minced with sterile razor blade into Collagenase (Type XI-S) (Sigma-Aldrich, Sweden) (30 min at 37° C.). After digestion, 3 ml of DMEM Medium (Life Technologies) supplemented with 10% Fetal Bovine Serum and 1% Penicillin/Streptomycin (Life Technologies) was added to a 6 cm plate and the samples were incubated at 37° C. for at least 6 days. After passaging (0.05% Trypsin-EDTA; Invitrogen), the cells were plated in 12 multi-well plates in MEF medium (DMEM Medium+10% FBS+1% pen/strep) at a density of at least 50 k/cm^2. […] The number of photons emitted by each culture dish was counted over 1 minute every 10 min (time resolution: 6 data points/h). The time series were further analyzed by means of cosinor analysis as described in Example 4.

Bmal1 = Bmal1 expression in primary fibroblast cultures from control and DEX-exposed mice (qPCR); assay type: cell-based, mouse; conditions: fibroblasts from prenatally DEX-exposed mice aged 6 mo; synchronised with 1 μM DEX
Protocol: as §1, with “(˜0.25” for “(about 0.25”, “DEX-exposed” for “Dex-exposed”, “cells were then collected between 6 and 36 h after synchronisation. The relative expression” for “number”, “Bmal1 was assessed” for “photons emitted”, “qPCR with Gapdh as housekeeping gene” for “each culture dish was counted over 1 minute every 10 min (time resolution: 6 data points/h). The time series were further analyzed by means of cosinor analysis”, “1 (Table 2: SEQ ID NO 5 and 6, and 1 5 and 2, respectively).” for “4.”

C57Bl/6 mice [1] = experiment: Tail-suspension test (TST); assay type: in vivo, mouse; conditions: prenatal DEX exposure; mice aged 12 mo
Protocol: The delivery day was recorded as postnatal day (PND) 0. The litters were culled to 4 pups/litter at PND3. The pups were weighed at PND3, 7, 14, and 21. At weaning (PND21), the mice were implanted subcutaneously with sterile radio-frequency identification (RFID) tags (Trovan Unique 100A, Trovan Ltd., UK) under brief isoflurane anesthesia. The transponders allowed unambiguous identification of animals and were also used for monitoring the activity in homecage environment. After implantation, the pups were redistributed to new cages so that each cage would house a maximum of 5 mice originating from different litters, and the distribution was maintained throughout the study. The mice were kept in an animal facility under 12 h:12 h light-dark (LD) cycle (light intensity 50 lx; light on at 6 a.m.) at constant temperature (22±1° C.) and humidity (50%±5%). The circadian zeitgeber (“time-giver”) time (ZT) 0 corresponds to the subjective sunrise, i.e., the onset of the light phase.
For TST, the mice were allowed to acclimatize in the testing room for at least 30 min before the experiment. The mice were suspended by the tail 15 cm above the table (using adhesive tape placed approx. 2 cm from the base of the tail). Soft padding was provided in order to prevent injuries in case the animal escaped or fell down because of tape failure. After 6 min, the animal were released and placed in the homecage. […]

C57Bl/6 mice [2] = experiment: Forced swim test (FST), depression-like behavior; assay type: in vivo, mouse; conditions: for immobility time in FST after FLX treatment: 12 mo, FLX 80 mg/L in drinking water for 21 days
Protocol: […]; Sigma-Aldrich, Sweden) from gestational day (GD) 14 until delivery. The delivery day was recorded as postnatal day (PND) 0. The litters were culled to 4 pups/litter at PND3. The pups were weighed at PND3, 7, 14, and 21. At weaning (PND21), the mice were implanted subcutaneously with sterile radio-frequency identification (RFID) tags (Trovan Unique 100A, Trovan Ltd., UK) under brief isoflurane anesthesia. The transponders allowed unambiguous identification of animals and were also used for monitoring the activity in homecage environment. After implantation, the pups were redistributed to new cages so that each cage would house a maximum of 5 mice originating from different litters, and the distribution was maintained throughout the study. The mice were kept in an animal facility under 12 h:12 h light-dark (LD) cycle (light intensity 50 lx; light on at 6 a.m.) at constant temperature (22±1° C.) and humidity (50%±5%). The circadian zeitgeber (“time-giver”) time (ZT) 0 corresponds to the subjective sunrise, i.e., the onset of the light phase.
Adult male mice aged 7 weeks, 3 mo, or 12 mo were tested for depression-like behavior in the forced swim tests (FST). Briefly, the animals were individually placed in glass cylinders (24 cm height, 12 cm diameter) filled with water (23.5° C.) to a depth of 16 cm. The animals were exposed to a 15 min pretest followed by a 6 min test 24 h later. Test sessions were videotaped and analysed offline by one investigator who was blind to the treatment and exposure conditions. Immobility was defined as passive floating for at least 2 s. After documenting depression-like behavior at the age of 12 mo, the animals were treated with fluoxetine (FLX; a selective serotonin re-uptake inhibitor antidepressant) dissolved in drinking water (80 mg/L) for 21 days before repeating the test. In addition to FST, depression-like behavior was tested in a tail-suspension test (TST), as described below.

[3] = Corticosterone metabolites in feces; assay type: in vivo, mouse; conditions: prenatal DEX exposure, 12 mo
Protocol: The circadian pattern of GC secretion at 12 mo was investigated using a minimally invasive approach. To this end, spontaneous fecal boli were collected between ZT1-2 and ZT12-14 (i.e., immediately after the transition between the light and dark phases of the LD cycle). The feces were collected in sterile Eppendorf tubes and stored at −80° C. until further processing. Samples from each mouse were collected on two occasions (7 day interval between samplings) and the measurements for each mouse were averaged before analysing the differences across the LD cycle. The concentration of corticosterone metabolites in dry fecal extracts was measured by enzyme immunoassay according to manufacturer's instructions (DetectX™, Arbor Assays, Ann Arbor, […]., USA).

C57Bl/6 mice [4] = experiment: Homecage spontaneous activity (cosinor, periodogram, detrended fluctuation analysis)
Protocol: The spontaneous activity of mice aged 1, 3, 5, and 12 mo (N=7-8/group) was recorded using the TraffiCage™ system (NewBehavior, Zurich, Switzerland). Briefly, the system consists of an array of radio frequency (RF) antennas placed under the cage with group-housed, freely moving mice. The antennas read the RFID tags and provide an approximate location of each animal with a time resolution of 20 ms. The time interval during which an animal is detected constantly by the same antenna is defined as a “visit.” When an animal changes location enough to be detected by another antenna, a new visit is recorded. Each visit is described by the start time and duration. For long recordings, the number of visits is virtually equal to the number of transitions, and can be used as activity count. The time series of visits are exported as ASCII files and analysed using custom routines developed in Matlab™ R2013b (The MathWorks™, Natick, Md., USA).
The mice were housed in a climate-controlled, isolated room for a period of 6 to 7 weeks, with minimal interactions with human experimenters (except for changing the cage and to replenish food and water, which occurred at random times throughout the experiment). The synchronisation of activity monitoring with the LD cycle was ensured by using a remote control device (TellStick™, Telldus Technologies AB, Lund, Sweden) operated by the computer running TraffiCage™ control software. To minimize the effects of novelty and possible interference from circadian rhythm entrainment, the baseline measurements were derived based on 3 LD cycles after an acclimation period of at least 3 LD cycles.
The analysis of circadian rhythmicity consisted of rhythmometry by means of cosinor analysis. […] We next analysed spontaneous activity by detrended fluctuation analysis (DFA). The method is based on linear regression analysis of the residual variance of the time series against the time scale used for detrending on double-logarithmic plots. The slope of a linear regression in double-logarithmic plot translates into a scaling exponent, and describes the long-term autocorrelation patterns embedded in the time series.

[5] = system: hippocampal dentate gyrus; conditions: chronic FLX; for effect of FLX treatment on neurogenesis: 12 mo
mice = experiment: MeHg model of developmental neurotoxicity, depression-like behavior; assay type: in vivo, mouse

oscillations in Bmal1 expression vs control mice (Bmal1): attenuated oscillations
depression-like phenotype in tail suspension test (C57Bl/6 mice [1]): reconfirmed
immobility time in FST vs controls (C57Bl/6 mice [2]; prenatal DEX 0.05 mg/kg/day s.c. from GD14 until delivery, male offspring at 12 mo): increased
levels of corticosterone metabolites in the feces vs controls [3]: lower levels
scaling coefficient of spontaneous activity (detrended fluctuation analysis) (C57Bl/6 mice [4]; one DEX-exposed mouse (FIG. 6D), control mouse 0.82): 0.88
amplitude of circadian rhythm (cosinor), baseline vs forced synchronisation (C57Bl/6 mice [4]; prenatal DEX exposure): no significant difference
circadian period of spontaneous activity (C57Bl/6 mice [4]; prenatal DEX exposure, 12 months old, constant steady entrainment): shorter
amplitude of circadian rhythm (cosinor) at baseline vs controls (C57Bl/6 mice [4]; prenatal DEX exposure, LD cycle baseline): larger
scaling exponent, free-running vs circadian entrainment conditions (C57Bl/6 mice [4]; prenatal DEX exposure, all ages investigated): significant fluctuations
acrophase, baseline vs forced synchronisation (C57Bl/6 mice [4]; prenatal DEX exposure, mice aged 3 mo and older): did not vary
Structure (SMILES): C[C@@H]1C[C@H]2[C@@H]3CCC4=CC(=O)C=C[C@]4(C)[C@@]3(F)[C@@H](O)C[C@]2(C)[C@@]1(O)C(=O)CO [DEX, dexamethasone]
period of oscillations in clock gene mRNA expression after DEX synchronisation (BMAL1, PER1 and PER2): about 24 h
time over which oscillations can be detected after initial DEX synchronisation (Per2 promoter): ≤ 10 days
circadian fluctuations in GC secretion ([3]; ZT1-2 vs ZT12-14): did not show significant circadian fluctuations

Structure (SMILES): CNCCC(Oc1ccc(C(F)(F)F)cc1)c1ccccc1 (stereo not drawn) [FLX, fluoxetine]
effect of FLX treatment on neurogenesis ([5]; DEX-exposed mice): did not have any significant effect; also recorded: has no effect
effect of FLX treatment on neurogenesis ([5]; controls): reduces
number of DCX+ cells after FLX ([5]; middle-aged controls): decreased
reversal of depression-like behavior by antidepressant treatment (C57Bl/6 mice [2]; DEX model, middle-aged mice (12 months)): not reversed
immobility time in FST after FLX treatment (C57Bl/6 mice [2]; DEX-exposed mice): not altered
immobility time in FST after FLX treatment (C57Bl/6 mice [2]; control mice): decreases
reversal of depression-like behavior by antidepressant treatment (mice; young adults (2-3 months)): reversed

Structure (SMILES): [CH3][Hg][Cl] [MeHg, methylmercury]
depression-like behavior after developmental exposure (mice): detectable in young adults
